In the supplement of paper PMC11451515:

Assays:
Conditions in all cases: 48 h
[1] = tested on: SEM cells; experiment: cell viability relative to DMSO control; higher = less cytotoxic
Summary of the method: (§1)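 Viability, reported as a per-plate percentage of DMSO wells with cell-free wells as background, came from CellTiter-Glo One luminescence. Reading took place after 48 h at 37°C. Before that, NOMO1 or SEM (500 cells/well) or P12-Ichikawa (1000 cells/well) leukemia cells, adapted for at least four passages in each medium, were seeded in 1536-well plates (5 μl) and pin-dosed with library compounds in DMSO, 47 μM to 0.79 nM over 11 threefold points.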

[2] = tested on: P12-Ichikawa; experiment: AUC of viability dose-response curve (% viability x log10 dose units); higher = less sensitive
Summary of the method: (§2)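 Leukemia cells adapted to each medium were seeded at 500 or 1000 cells/well in 1536-well plates and dosed with library compounds in DMSO at 11 threefold doses from 47 μM to 0.79 nM for 48 h at 37°C. CellTiter-Glo One luminescence was normalised per plate to DMSO and cell-free wells, then fitted with a four-parameter log-logistic model over log10 doses. Area under the curve was taken from this fit by the trapezoidal rule, with curves above full viability scaled and curves failing quality control removed.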

[3] = tested on: NOMO1; experiment: as above
Summary of the method: as §2

[4] = tested on: SEM cells; experiment: as above
Summary of the method: as §2

[5] = tested on: P12-Ichikawa; experiment: cell viability relative to DMSO control; higher = less cytotoxic
Summary of the method: as §1

[6] = tested on: NOMO1; experiment: as above
Summary of the method: as §1

O=C(Nc1ccccc1Br)N[C@@H]1CCN(c2ccc(C(F)(F)F)cn2)C1
cell viability [%], [1]
Conditions | HPLM + 10% dialyzed FBS | RPMI 5 mM glucose + 10% FBS
0.000781 µM | 119 | 117
0.00234 µM | 121 | 94.6
0.00702 µM | 136 | 107
0.0211 µM | 131 | 122
0.0632 µM | 127 | 113
0.19 µM | 121 | 112
0.569 µM | 126 | 105
1.71 µM | 133 | 112
5.12 µM | 122 | 98.9
15.4 µM | 120 | 106
46.1 µM | 117 | 85

AUC of viability dose-response curve
Conditions | [2] | [3] | [4]
HPLM + 10% dialyzed FBS | 448 | 448 | 469
RPMI 5 mM glucose + 10% FBS | 443 | 432 | 461
RPMI 5 mM glucose + 10% dialyzed FBS | 454 | 447 | 469

O=C(Nc1cccc(Cl)c1)Nc1ncc(CCNc2ncnc3ccsc23)s1
AUC of viability dose-response curve
Conditions | [2] | [3] | [4]
HPLM + 10% dialyzed FBS | 290 | 362 | 301
RPMI 5 mM glucose + 10% FBS | 306 | 374 | 272
RPMI 5 mM glucose + 10% dialyzed FBS | 301 | 385 | 274

CCC[C@H](NC(=O)/C(C#N)=C/c1cccc(Br)n1)c1ccccc1
cell viability [%]
Conditions | [1] | [5] | [6]
HPLM + 10% dialyzed FBS, 0.000781 µM | 121 | 122 | –
HPLM + 10% dialyzed FBS, 0.00234 µM | 125 | 121 | –
HPLM + 10% dialyzed FBS, 0.00702 µM | 119 | 121 | –
HPLM + 10% dialyzed FBS, 0.0211 µM | 26.5 | 102 | –
HPLM + 10% dialyzed FBS, 0.0632 µM | 124 | 124 | –
HPLM + 10% dialyzed FBS, 0.19 µM | 117 | 121 | –
HPLM + 10% dialyzed FBS, 0.569 µM | 111 | 113 | –
HPLM + 10% dialyzed FBS, 1.71 µM | 124 | 113 | –
HPLM + 10% dialyzed FBS, 5.12 µM | 120 | 112 | –
HPLM + 10% dialyzed FBS, 15.4 µM | 98.6 | 103 | –
HPLM + 10% dialyzed FBS, 46.1 µM | 6.55 | 6.91 | –
RPMI 5 mM glucose + 10% FBS, 0.000781 µM | 94.4 | 130 | 110
RPMI 5 mM glucose + 10% FBS, 0.00234 µM | 110 | 122 | 123
RPMI 5 mM glucose + 10% FBS, 0.00702 µM | 104 | 122 | 116
RPMI 5 mM glucose + 10% FBS, 0.0211 µM | 17.6 | 111 | 111
RPMI 5 mM glucose + 10% FBS, 0.0632 µM | 112 | 120 | 111
RPMI 5 mM glucose + 10% FBS, 0.19 µM | 111 | 116 | 107
RPMI 5 mM glucose + 10% FBS, 0.569 µM | 102 | 128 | 103
RPMI 5 mM glucose + 10% FBS, 1.71 µM | 113 | 122 | 108
RPMI 5 mM glucose + 10% FBS, 5.12 µM | 111 | 111 | 104
RPMI 5 mM glucose + 10% FBS, 15.4 µM | 57.1 | 103 | 111
RPMI 5 mM glucose + 10% FBS, 46.1 µM | 7.49 | 5.26 | 4.55
RPMI 5 mM glucose + 10% dialyzed FBS, 0.000781 µM | – | 116 | 109
RPMI 5 mM glucose + 10% dialyzed FBS, 0.00234 µM | – | 131 | 114
RPMI 5 mM glucose + 10% dialyzed FBS, 0.00702 µM | – | 125 | 122
RPMI 5 mM glucose + 10% dialyzed FBS, 0.0211 µM | – | 114 | 115
RPMI 5 mM glucose + 10% dialyzed FBS, 0.0632 µM | – | 114 | 109
RPMI 5 mM glucose + 10% dialyzed FBS, 0.19 µM | – | 121 | 117
RPMI 5 mM glucose + 10% dialyzed FBS, 0.569 µM | – | 121 | 120
RPMI 5 mM glucose + 10% dialyzed FBS, 1.71 µM | – | 121 | 116
RPMI 5 mM glucose + 10% dialyzed FBS, 5.12 µM | – | 107 | 108
RPMI 5 mM glucose + 10% dialyzed FBS, 15.4 µM | – | 94.4 | 99.9
RPMI 5 mM glucose + 10% dialyzed FBS, 46.1 µM | – | 5.69 | 4.54

AUC of viability dose-response curve
Conditions | HPLM + 10% dialyzed FBS | RPMI 5 mM glucose + 10% FBS | RPMI 5 mM glucose + 10% dialyzed FBS
[2] | 449 | 447 | 444
[3] | 437 | 454 | 448
